Columns and labels:
[1] = target: T1, human α2A-adrenergic receptor (hα2A; αh2A) (Homo sapiens, UniProt P08913); assay: radioligand binding, filtration, Sf9 membranes; conditions: labelled compound, […]; […] Tris-HCl pH […] MgCl2, […] EDTA; […] h
T1 sequence (P08913 1-465): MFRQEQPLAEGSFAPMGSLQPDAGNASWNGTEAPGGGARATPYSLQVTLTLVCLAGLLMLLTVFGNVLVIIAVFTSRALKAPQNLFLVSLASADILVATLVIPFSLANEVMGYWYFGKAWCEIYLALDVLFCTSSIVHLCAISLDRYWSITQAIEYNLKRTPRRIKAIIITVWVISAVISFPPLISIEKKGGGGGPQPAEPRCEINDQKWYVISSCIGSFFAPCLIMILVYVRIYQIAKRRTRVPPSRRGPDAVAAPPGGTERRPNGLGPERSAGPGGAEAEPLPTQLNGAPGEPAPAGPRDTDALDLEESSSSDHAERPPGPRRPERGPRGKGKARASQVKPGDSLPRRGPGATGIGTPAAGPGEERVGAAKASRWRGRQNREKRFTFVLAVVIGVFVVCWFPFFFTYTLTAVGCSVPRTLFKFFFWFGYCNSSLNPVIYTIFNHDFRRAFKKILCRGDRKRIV

[2] = target: T1, human α2A-adrenergic receptor (hα2A; αh2A); assay: [3H]RX821002 displacement, filtration, Sf9 membranes; type: binding; conditions: […] [3H]RX821002; […] Tris-HCl pH […] MgCl2, […] EDTA

Row | SMILES | radioligand binding, filtration, Sf9 membranes [1] | [3H]RX821002 displacement, filtration, Sf9 membranes [2]
1 | COC1(C2=NCCN2)COc2ccccc2O1 (stereo not shown) [RX821002] | [^3H]RX821002 binding was concentration-dependently inhibited by increasing concentrations of both norepinephrine and dopamine | –
2 | CN1CCc2cc(Cl)c(O)cc2[C@@H](c2ccccc2)C1 [SCH-23390] | – | apomorphine, SCH-23390 and clozapine display a substantial affinity for α2a-adrenergic receptors
3 | CN1CCc2cccc3c2[C@H]1Cc1ccc(O)c(O)c1-3 [apomorphine] | – | apomorphine, SCH-23390 and clozapine display a substantial affinity for α2a-adrenergic receptors
4 | CN1CCN(C2=Nc3cc(Cl)ccc3Nc3ccccc32)CC1 [clozapine] | – | apomorphine, SCH-23390 and clozapine display a substantial affinity for α2a-adrenergic receptors

Reference: article PMC2858410 (The Journal of comparative neurology, 2008)
